How the values were obtained:
U251 = experiment: cells; type: cell-based; settings: U251 (CNS Cancer)
SF-268 = experiment: cells; type: cell-based; settings: SF-268 (CNS Cancer)
CCRF-CEM = experiment: cells; type: cell-based; settings: CCRF-CEM (Leukemia)
EKVX = experiment: cells; type: cell-based; settings: EKVX (NSCLC)
HS 578T = experiment: cells; type: cell-based; settings: HS 578T (Breast Cancer)
SYK [1] = molecular target: T1, SYK (Homo sapiens, UniProt P43405); experiment: In vitro kinase inhibition, Ambit Biosciences panel; type: binding; design: purchased Ambit Biosciences; settings: lower numbers indicate stronger activities
Method: (§1) Up to 518 different kinases have been identified in humans. They act on small molecules such as lipids, carbohydrates, amino acids, and nucleotides. To determine the scope of inhibitory effects of a representative compound of Formula (I) on known kinases, Compound 6 was tested against 104 commercially available kinases (Ambit Biosciences™) in vitro. 104 kinases included ABL1(E255K)-phosphorylated, ABL1(T315I)-phosphorylated, ABL1-phosphorylated, ACVR1B, ADCK3, AKT1, AKT2, ALK, AURKA, AURKB, AXL, BMPR2, BRAF, BRAF(V600E), BTK, CDK11, CDK2, CDK3, CDK7, CDK9, CHEK1, CSF1R, CSNK1D, CSNK1G2, DCAMKL1, DYRK1B, EGFR, EGFR(L858R), EPHA2, ERBB2, ERBB4, ERK1, FAK, FGFR2, FGFR3, FLT1, FLT3, FLT4, GSK3B, IGF1R, IKK-α, IKK-β, INSR, JAK2(JH1domain-catalytic), JAK3(JH1domain-catalytic), JNK1, JNK2, JNK3, KIT, KIT(D816V), KIT(V559D,T670I), LKB1, LRRK2, LRRK2(G2019S), MAP3K4, MAPKAPK2, MARK3, MEK1, MEK2, MET, MKNK1, MKNK2, MLK1, MTOR, p38-alpha, p38-beta, PAK1, PAK2, PAK4, PCTK1, PDGFRA, PDGFRB, PDPK1, PIK3C2B, PIK3CA, PIK3CG, PIM1, PIM2, PIM3, PKAC-alpha, PLK1, PLK3, PLK4, PRKCE, PYK2, RAFT, RET, RIOK2, ROCK2, RSK2, SNARK, SRC, SRPK3, SYK, TAK1, TGFBR1, TIE2, TRKA, TSSK1B, TYK2(JH1domain-catalytic), ULK2, VEGFR2, YANK3 and ZAP70.
(§2) Inhibition activity of Compound 6 was reported as percent control where lower numbers indicate stronger activities. […]

PYK2 [2] = molecular target: T2, PYK2 (Homo sapiens, UniProt Q14289); experiment: as above; type: binding; design: purchased Ambit Biosciences; settings: lower numbers indicate stronger activities
Method: as §1, §2

NCI-H23 = experiment: cells; type: cell-based; settings: NCI-H23 (NSCLC)
SYK [3] = molecular target: T1, SYK; experiment: Inhibition of enzymatic kinase activity (LANCE Ulight); type: biochemical; design: Purified full-length human SYK, ZAP70, PIM1, PYK2; purchased Carna Biosciences; settings: at 1 μM concentration; read-out: SYK percentage inhibition
Method: (§3) Inhibition of Enzymatic SYK, ZAP70, PYK2, FAK, PIM1, RET, FLT3, JAK2 and LRRK2 Kinase Activity
(§4) Compounds of the invention were initially diluted to 10 mM in 100% DMSO (CALBIOCHEM™) for storage and made into kinase buffer solution to create a compound concentration ranging from 1 uM and 10 uM. Serial dilutions of compounds of the invention were dispensed into a 96-well plate (GREINER BIOSCIENCES™) at 6 μL each. Purified full-length human SYK, ZAP70, PIM1, PYK2 and truncated human FAK, RET, FLT3, JAK2, and LRRK2 (CARNA BIOSCIENCES™) were diluted in kinase buffer and added to the compound solutions and pre-incubated for 30 minutes at room temperature (1 hour for PYK2). […] The reaction mixture was incubated for 1 hour (2 hours for PYK2). Following the incubation, the stop solution made with EDTA, water, and Lance detection buffer ([…]™) was added (12 μL each) to stop phosphorylation.

PYK2 [4] = molecular target: T2, PYK2; experiment: as above; type: biochemical; design: Purified full-length human SYK, ZAP70, PIM1, PYK2; purchased Carna Biosciences; settings: at 1 μM concentration; read-out: PYK2 percentage inhibition
Method: as §3, §4

MCF7 = experiment: cells; type: cell-based; settings: MCF7 (Breast Cancer)
DU-145 = experiment: cells; type: cell-based; settings: DU-145 (Prostate Cancer)
NCI/ADR-RES = experiment: cells; type: cell-based; settings: NCI/ADR-RES (Ovarian Cancer)
BT-549 = experiment: cells; type: cell-based; settings: BT-549 (Breast Cancer)
[5] = Homo sapiens, read-out: LC50 (the source's name)

T2 sequence (Q14289 whole entry): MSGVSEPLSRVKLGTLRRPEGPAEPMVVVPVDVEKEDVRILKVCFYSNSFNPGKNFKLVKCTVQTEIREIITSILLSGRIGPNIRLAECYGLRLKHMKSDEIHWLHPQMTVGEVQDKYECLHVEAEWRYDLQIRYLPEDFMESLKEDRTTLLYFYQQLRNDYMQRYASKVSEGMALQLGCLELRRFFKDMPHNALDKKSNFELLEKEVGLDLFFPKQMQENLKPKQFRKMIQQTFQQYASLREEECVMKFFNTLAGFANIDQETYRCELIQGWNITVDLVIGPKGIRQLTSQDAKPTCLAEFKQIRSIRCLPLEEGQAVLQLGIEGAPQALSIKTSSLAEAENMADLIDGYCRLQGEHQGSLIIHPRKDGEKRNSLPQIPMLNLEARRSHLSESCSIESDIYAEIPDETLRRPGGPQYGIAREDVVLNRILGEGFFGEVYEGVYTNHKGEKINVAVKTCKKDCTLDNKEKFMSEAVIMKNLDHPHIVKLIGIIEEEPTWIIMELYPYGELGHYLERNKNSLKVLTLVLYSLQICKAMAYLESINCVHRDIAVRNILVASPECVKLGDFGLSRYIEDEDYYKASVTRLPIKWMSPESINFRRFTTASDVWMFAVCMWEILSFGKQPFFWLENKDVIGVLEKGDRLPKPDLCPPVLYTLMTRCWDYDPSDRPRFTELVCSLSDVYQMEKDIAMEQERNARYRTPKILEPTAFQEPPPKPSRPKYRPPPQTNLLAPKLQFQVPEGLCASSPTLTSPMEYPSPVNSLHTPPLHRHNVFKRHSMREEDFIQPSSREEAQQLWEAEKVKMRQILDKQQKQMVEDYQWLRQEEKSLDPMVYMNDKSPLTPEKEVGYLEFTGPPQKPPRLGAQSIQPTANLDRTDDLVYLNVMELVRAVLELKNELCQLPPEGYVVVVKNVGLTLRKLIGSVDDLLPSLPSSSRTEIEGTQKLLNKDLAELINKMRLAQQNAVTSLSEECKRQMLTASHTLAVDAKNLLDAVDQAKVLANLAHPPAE

## O=c1[nH]ccc2nc(N3CCC(O)CC3)nc(Nc3cccc(C(F)(F)F)c3)c12 [Compound 6, 2-(4-hydroxypiperidin-1-yl)-4-(3-(trifluoromethyl)phenylamino)pyrido[4,3-d]pyrimidine-5(6H)-one]
U251; Homo sapiens, U-251
  GI50: 6.17 µM
  IC50: 11.7 µM
U251; Homo sapiens, U-251, read-out: LC50 (the source's name)
  CC50: 100 µM
U251
  TGI: 100 µM
SF-268; Homo sapiens
  GI50: 3.09 µM
  IC50: 12.9 µM
SF-268; [5]
  CC50: 100 µM
SF-268
  TGI: 35.5 µM
CCRF-CEM
  TGI: 100 µM
CCRF-CEM; Homo sapiens
  GI50: 2.09 µM
  IC50: 4.07 µM
  LC50: 100 µM
EKVX
  TGI: 12 µM
EKVX; Homo sapiens
  GI50: 2.88 µM
  IC50: 7.59 µM
EKVX; [5]
  CC50: 100 µM
HS 578T
  TGI: 14.1 µM
HS 578T; Homo sapiens
  GI50: 1.95 µM
  IC50: 43.7 µM
HS 578T; [5]
  CC50: 100 µM
SYK [1]
  % inhibition (reported as percent control): 8.4%
PYK2 [2]
  % inhibition (reported as percent control): 32%
NCI-H23; Homo sapiens
  GI50: 3.24 µM
  IC50: 6.92 µM
NCI-H23; [5]
  CC50: 50.1 µM
NCI-H23
  TGI: 13.8 µM
SYK [3]
  inhibition at 1 µM: 88%
PYK2 [4]
  inhibition at 1 µM: 83%
MCF7; Homo sapiens
  GI50: 2.82 µM
  IC50: 4.07 µM
MCF7; [5]
  CC50: 100 µM
MCF7
  TGI: 12.6 µM
DU-145
  TGI: 19.5 µM
DU-145; Homo sapiens
  GI50: 1.55 µM
  IC50: 6.03 µM
DU-145; [5]
  CC50: 100 µM
NCI/ADR-RES; Homo sapiens
  GI50: 2.34 µM
  IC50: 4.37 µM
NCI/ADR-RES; [5]
  CC50: 100 µM
NCI/ADR-RES
  TGI: 7.41 µM
BT-549
  TGI: 4.37 µM
BT-549; Homo sapiens
  GI50: 1.58 µM
  IC50: 4.57 µM
BT-549; [5]
  CC50: 14.1 µM

— US8404677B2, “Kinase inhibitors” (Genosco, priority 2009, dated 2013)
